Source: US7645758B2, “Heterocyclic compounds” (Janssen Pharmaceutica, N.Y., priority 2002, dated 2010)
Read-outs that look alike come from different tables or passages of the source. Each block holds one molecule with its values, some of them ahead of it.

Experiments:
[1] = biological target: T1, human histamine H4 receptor (Homo sapiens, UniProt Q9H3N8); experiment: Binding assay on recombinant human histamine H4 receptor
T1 construct: expressed in transfected cells; host or cells: SK-N-MC or COS7 cells, transiently transfected with pH4R; cell membranes

Mast cells = experiment: Mast cell chemotaxis assay; assay type: cell-based; conditions: 10 μM Histamine
Description: Mast Cell Chemotaxis Assay
Mast cell accumulation in mucosal epithelia is a well-known characteristic of allergic rhinitis and asthma. Transwells (Costar, Cambridge, Mass.) of a pore size 8 μm were coated with 100 μL of 100 ng/mL human fibronectin (Sigma) for 2 h at room temperature. […] Mast cells (2×10^5/well) were added to the top chamber. The plates were incubated for 3 h at 37° C. Transwells were removed and the cells in the bottom chamber were counted for sixty seconds using a flow cytometer.

human eosinophils = experiment: Inhibition of eosinophil shape change (GAFS); assay type: cell-based; conditions: for effect on histamine-induced shape change: H1 or H2 specific antagonist
Description: Eosinophil accumulation in sites of allergic reaction is a well-known characteristic of allergic rhinitis and asthma. […] Shape change is a cellular characteristic that precedes eosinophil chemotaxis.
Human granulocytes were isolated from human blood by a Ficoll gradient. The red blood cells were lysed with 5-10× Qiagen lysis buffer at room temperature for 5-7 min. Granulocytes were harvested and washed once with FACS buffer. The cells were resuspended at a density of 2×10^6 cells/mL in reaction buffer. […] Ten minutes later the cells were transferred to ice and fixed with 250 μL of ice-cold fixative buffer (2% formaldehyde) for 1 min.

[2] = 3H-histamine competition, membranes of SK-N-MC or COS7 cells expressing human H4, read-out: Ki
[3] = repeated in the chemotaxis table, read-out: Binding Assay Ki
[4] = Histamine 0 μM, 10 μM HR antagonist
[5] = Histamine 0.01 μM, 10 μM HR antagonist
[6] = Histamine 0.1 μM, 10 μM HR antagonist
[7] = Histamine 1 μM, 10 μM HR antagonist
[8] = Histamine 10 μM, 10 μM HR antagonist

Ki [1, 2]: 21 nM
Ki [1, 3]: 21 nM
Structure (SMILES): Cc1csc2cc(C(=O)N3CCN(C)CC3)[nH]c12 [Example 13, (4-Methyl-piperazin-1-yl)-(3-methyl-4H-thieno[3,2-b]pyrrol-5-yl)-methanone]
% Inh (Mast cells; HR Antagonist 1 μM): 60%

Ki [1, 2]: 980 nM
Ki [1, 3]: 980 nM
Structure (SMILES): CC1CN(C(=O)c2cc3scc(Br)c3[nH]2)CCN1 (stereo not shown) [Example 20, (3-Bromo-4H-thieno[3,2-b]pyrrol-5-yl)-(3-methyl-piperazin-1-yl)-methanone]
% Inh (Mast cells; HR Antagonist 1 μM): <5%
% Inh (Mast cells; HR Antagonist 10 μM): <5%

Ki [1, 2]: 5.5 nM
Structure (SMILES): CN1CCN(C(=O)c2cc3sc(Cl)c(Cl)c3[nH]2)CC1 [Example 25, (2,3-Dichloro-4H-thieno[3,2-b]pyrrol-5-yl)-(4-methyl-piperazin-1-yl)-methanone]

Ki [1, 2]: 3 nM
Structure (SMILES): Cc1c(Cl)sc2cc(C(=O)N3CCN(C)CC3)[nH]c12 [Example 23, (2-Chloro-3-methyl-4H-thieno[3,2-b]pyrrol-5-yl)-(4-methyl-piperazin-1-yl)-methanone]

Ki [1, 2]: 343 nM
Structure (SMILES): Cc1cc2[nH]c(C(=O)N3CCN(C)CC3)cc2o1 [Example 14, (2-Methyl-4H-furo[3,2-b]pyrrol-5-yl)-(4-methyl-piperazin-1-yl)-methanone]

Ki [1, 2]: 140 nM
Structure (SMILES): Cc1oc2cc(C(=O)N3CCN(C)CC3)[nH]c2c1C [Example 15, (2,3-Dimethyl-4H-furo[3,2-b]pyrrol-5-yl)-(4-methyl-piperazin-1-yl)-methanone]

Ki [1, 2]: 30 nM
Structure (SMILES): Cc1c(Cl)sc2cc(C(=O)N3CCNCC3)[nH]c12 [Example 24, (2-Chloro-3-methyl-4H-thieno[3,2-b]pyrrol-5-yl)-piperazin-1-yl-methanone]

Ki [1, 2]: 161 nM
Structure (SMILES): Cc1csc2cc(C(=O)N3CCNC(C)C3)[nH]c12 (stereo not shown) [Example 22, (3-Methyl-piperazin-1-yl)-(3-methyl-4H-thieno[3,2-b]pyrrol-5-yl)-methanone]

Ki [1, 2]: 410 nM
Structure (SMILES): O=C(c1cc2scc(Br)c2[nH]1)N1CCNCC1 [Example 19, (3-Bromo-4H-thieno[3,2-b]pyrrol-5-yl)-piperazin-1-yl-methanone]

Ki [1, 2]: 5 nM
Structure (SMILES): Cc1sc2cc(C(=O)N3CCN(C)CC3)[nH]c2c1C [Example 16, (2,3-Dimethyl-4H-thieno[3,2-b]pyrrol-5-yl)-(4-methyl-piperazin-1-yl)-methanone]

Ki [1, 2]: 10 nM
Structure (SMILES): CN1CCN(C(=O)c2cc3c(Cl)c(Cl)sc3[nH]2)CC1 [Example 17, (2,3-Dichloro-6H-thieno[2,3-b]pyrrol-5-yl)-(4-methyl-piperazin-1-yl)-methanone]

Ki [1, 2]: 770 nM
Structure (SMILES): Cc1cc2[nH]c(C(=O)N3CCNCC3)cc2o1 [Example 18, (2-Methyl-4H-furo[3,2-b]pyrrol-5-yl)-piperazin-1-yl-methanone]

Ki [1, 2]: 80 nM
Structure (SMILES): Cc1csc2cc(C(=O)N3CCNCC3)[nH]c12 [Example 21, (3-Methyl-4H-thieno[3,2-b]pyrrol-5-yl)-piperazin-1-yl-methanone]

Ki [1, 2]: 56 nM
Structure (SMILES): CN1CCN(C(=O)c2cc3scc(Br)c3[nH]2)CC1 [Example 12, (3-Bromo-4H-thieno[3,2-b]pyrrol-5-yl)-(4-methyl-piperazin-1-yl)-methanone]

Continued, molecule first:

Structure (SMILES): O=C(c1cc2ccsc2[nH]1)N1CCN2CCCC2C1 (stereo not shown) [Example 2, (Hexahydro-pyrrolo[1,2-a]pyrazin-2-yl)-(6H-thieno[2,3-b]pyrrol-5-yl)-methanone]
Ki [1, 2]: 461 nM

Structure (SMILES): CN1CCN(C(=O)c2cc3ccsc3[nH]2)CC1 [Example 1, (4-Methyl-piperazin-1-yl)-(6H-thieno[2,3-b]pyrrol-5-yl)-methanone]
Ki [1, 2]: 85 nM

Structure (SMILES): CC1CN(C(=O)c2cc3sccc3[nH]2)CCN1 (stereo not shown) [Example 9, (3-Methyl-piperazin-1-yl)-(4H-thieno[3,2-b]pyrrol-5-yl)-methanone]
Ki [1, 2]: 733 nM

Structure (SMILES): CN1CCN(C(=O)c2cc3cc(Cl)sc3[nH]2)CC1 [Example 3, (2-Chloro-6H-thieno[2,3-b]pyrrol-5-yl)-(4-methyl-piperazin-1-yl)-methanone]
Ki [1, 2]: 25 nM
Ki [1, 3]: 25 nM

Structure (SMILES): CNC(=C[N+](=O)[O-])NCCSCc1ccc(CN(C)C)o1 [ranatidine]
effect on histamine-induced shape change (human eosinophils): did not alter
Fold Change (human eosinophils; [4]): 1.00
Fold Change (human eosinophils; [5]): 1.04
Fold Change (human eosinophils; [6]): 1.21
Fold Change (human eosinophils; [7]): 1.49
Fold Change (human eosinophils; [8]): 1.64

Structure (SMILES): NCCc1c[nH]cn1 [Histamine, histamine]
Fold Change (human eosinophils; Histamine 0.01 μM, No HR Antagonist): 1.01
Fold Change (human eosinophils; Histamine 0.1 μM, No HR Antagonist): 1.21
Fold Change (human eosinophils; Histamine 1 μM, No HR Antagonist): 1.31
Fold Change (human eosinophils; Histamine 10 μM, No HR Antagonist): 1.34
shape change in eosinophils (human eosinophils; histamine alone): induces a dose-dependent shape change

Structure (SMILES): O=C(c1cc2sc(Cl)cc2[nH]1)N1CCN2CCCC2C1 (stereo not shown) [Example 11, (2-Chloro-4H-thieno[3,2-b]pyrrol-5-yl)-(hexahydro-pyrrolo[1,2-a]pyrazin-2-yl)-methanone]
Ki [1, 2]: 715 nM

Structure (SMILES): CN1CCN(C(=O)c2cc3occc3[nH]2)CC1 [Example 6, (4H-Furo[3,2-b]pyrrol-5-yl)-(4-methyl-piperazin-1-yl)-methanone]
Ki [1, 2]: 840 nM

Structure (SMILES): CN1CCN(C(=O)c2cc3sc(Cl)cc3[nH]2)CC1 [Example 10, (2-Chloro-4H-thieno[3,2-b]pyrrol-5-yl)-(4-methyl-piperazin-1-yl)-methanone]
Ki [1, 2]: 40 nM
Ki [1, 3]: 40 nM

Structure (SMILES): O=C(c1cc2cc(Cl)sc2[nH]1)N1CCNCC1 [Example 5, (2-Chloro-6H-thieno[2,3-b]pyrrol-5-yl)-piperazin-1-yl-methanone]
Ki [1, 2]: 56 nM

Structure (SMILES): O=C(c1cc2cc(Cl)sc2[nH]1)N1CCN2CCCC2C1 (stereo not shown) [Example 4, (2-Chloro-6H-thieno[2,3-b]pyrrol-5-yl)-(hexahydro-pyrrolo[1,2-a]pyrazin-2-yl)-methanone]
Ki [1, 2]: 176 nM
Ki [1, 3]: 176 nM
% Inh (Mast cells; HR Antagonist 1 μM): <5%
% Inh (Mast cells; HR Antagonist 10 μM): <5%

Structure (SMILES): CN1CCN(C(=O)c2cc3sccc3[nH]2)CC1 [Example 7, (4-Methyl-piperazin-1-yl)-(4H-thieno[3,2-b]pyrrol-5-yl)-methanone]
Ki [1, 2]: 125 nM

Structure (SMILES): O=C(c1cc2sccc2[nH]1)N1CCNCC1 [Example 8, Piperazin-1-yl-(4H-thieno[3,2-b]pyrrol-5-yl)-methanone]
Ki [1, 2]: 343 nM

Structure (SMILES): CN(C)CCOC(c1ccccc1)c1ccccc1 [diphenhydramine]
effect on histamine-induced shape change (human eosinophils): did not alter
Fold Change (human eosinophils; [4]): 1.00
Fold Change (human eosinophils; [5]): 1.03
Fold Change (human eosinophils; [6]): 1.18
Fold Change (human eosinophils; [7]): 1.50
Fold Change (human eosinophils; [8]): 1.63
